Target: T1, hERG ion channel (Homo sapiens, UniProt Q12809)
T1 construct: expressed in transfected cells
Experiment: Inhibition of hERG ion channel (whole-cell patch clamp, HEK293 cells)
Type: cell-based
Details: compound 10 µM, room temperature
Method: Example 58: Inhibition of hERG Ion Channel by Compounds
The hERG ion channel was stably expressed in HEK293 cells.
The test sample was dissolved in dimethyl sulfoxide (DMSO) to prepare a 9 mM stock solution, which was stored in a -20 °C freezer. On the testing day, the stock solution was further dissolved in the extracellular fluid to achieve the required concentrations. The concentration for electrophysiological test was 10 µM.
The extracellular fluid (mM) was: sodium chloride, 137; potassium chloride, 4; calcium chloride, 1.8; magnesium chloride, 1; HEPES, 10; glucose, 10. The pH was adjusted to 7.34 with sodium hydroxide. The extracellular fluid was stored at 2-8 °C.
The intracellular fluid (mM) was: potassium aspartate, 130; magnesium chloride, 5; ethylene glycol tetraacetic acid (EGTA), 5; N-2-hydroxyethylpiperazine-N'-2-ethanesulfonic acid (HEPES), 10. […]
For administration of the test samples, perfusion was carried out using a perfusion system utilizing the gravity of one's own. […] The mean of the peak current amplitudes recorded for the last three times during the initial recording served as the current peak of the negative control. After the initial current was stable, the test samples were administered starting from a low concentration until three recorded peak currents were again stable or the peak currents were "constant" after and before continuous administration for 5 min. […]

T1 sequence (Q12809 whole entry): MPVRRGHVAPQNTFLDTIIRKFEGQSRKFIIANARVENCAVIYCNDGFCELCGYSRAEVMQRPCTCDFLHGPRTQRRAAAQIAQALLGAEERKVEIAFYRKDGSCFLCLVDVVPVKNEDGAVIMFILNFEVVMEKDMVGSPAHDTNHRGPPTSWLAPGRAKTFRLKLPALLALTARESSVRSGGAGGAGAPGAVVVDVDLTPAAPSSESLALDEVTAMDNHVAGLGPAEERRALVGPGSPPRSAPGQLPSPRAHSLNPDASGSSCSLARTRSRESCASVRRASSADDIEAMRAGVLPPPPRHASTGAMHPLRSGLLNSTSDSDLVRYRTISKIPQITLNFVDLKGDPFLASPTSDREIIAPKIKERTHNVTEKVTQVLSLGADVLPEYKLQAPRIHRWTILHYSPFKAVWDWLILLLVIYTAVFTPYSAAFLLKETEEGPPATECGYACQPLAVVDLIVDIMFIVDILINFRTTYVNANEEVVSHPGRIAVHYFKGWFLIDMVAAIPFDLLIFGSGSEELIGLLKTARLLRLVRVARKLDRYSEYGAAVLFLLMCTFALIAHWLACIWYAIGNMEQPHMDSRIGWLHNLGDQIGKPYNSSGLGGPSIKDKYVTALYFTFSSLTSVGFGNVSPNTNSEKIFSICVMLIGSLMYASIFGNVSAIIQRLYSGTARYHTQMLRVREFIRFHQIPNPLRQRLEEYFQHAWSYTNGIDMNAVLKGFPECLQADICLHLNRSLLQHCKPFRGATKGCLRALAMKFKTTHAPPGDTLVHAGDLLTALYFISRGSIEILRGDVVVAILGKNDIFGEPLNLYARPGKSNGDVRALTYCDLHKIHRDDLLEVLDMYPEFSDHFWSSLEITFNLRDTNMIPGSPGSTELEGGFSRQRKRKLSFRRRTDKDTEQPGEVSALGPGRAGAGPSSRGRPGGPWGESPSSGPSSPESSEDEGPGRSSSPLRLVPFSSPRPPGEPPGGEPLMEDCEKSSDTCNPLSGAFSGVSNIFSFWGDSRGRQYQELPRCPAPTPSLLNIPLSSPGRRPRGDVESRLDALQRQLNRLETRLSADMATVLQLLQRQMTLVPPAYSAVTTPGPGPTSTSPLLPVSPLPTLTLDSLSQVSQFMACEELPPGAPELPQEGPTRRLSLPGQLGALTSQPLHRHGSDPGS

| Compound | Percentage blocking rate of hERG channel |
| --- | --- |
| O=C(NC1CCc2cc(C#Cc3cnn(C(F)F)c3)cc3c2N(CC3)C1=O)c1ncn(Cc2c(F)cccc2F)n1 (centres unmarked) [III-17, 1-(2,6-difluorobenzyl)-N-(9-((1-(difluoromethyl)-1H-pyrazol-4-yl)ethynyl)-4-oxo-1,2,3,4,6,7-hexahydroazepino[3,2,1-hi]indol-3-yl)-1H-1,2,4-triazole-3-carboxamide] | 38.89% |
| N-(9-((1-(difluoromethyl)-1H-pyrazol-4-yl)ethynyl)-4-oxo-1,2,3,4,6,7-hexahydroazepino[3,2,1-hi]indol-3-yl)-1-(4-methylbenzyl)-1H-1,2,4-triazole-3-carboxamide [III-25] | 39.58% |

Reference: patent EP4772510A2, “BENZAZEPINONE COMPOUND AND USE THEREOF” (HANGZHOU BIO-SINCERITY PHARMA-TECHCO., LTD., priority 2023, dated 2025)
